Test results as given in ChEMBL document CHEMBL5038666, “Discovery of DNA-Targeting HDAC Inhibitors with Potent Antitumor Efficacy In Vivo That Trigger Antitumor Immunity” (J Med Chem, 2022).
Activity calls are given as the source filed them. The rule behind the calls is not given here.

How the values were obtained:
Histone deacetylase = assay: Inhibition of HDAC in human HeLa nuclear extract using fluorogenic substrate incubated for 30 mins by fluorescence based assay; assay type: cell-based
Histone deacetylase 1 = Histone deacetylase 1 (Homo sapiens, UniProt Q13547); assay: Inhibition of HDAC1 (unknown origin) using fluorogenic substrate incubated for 30 mins by fluorescence based assay
Histone deacetylase 8 = target: T1, Histone deacetylase 8 (Homo sapiens, UniProt Q9BY41); assay: Inhibition of HDAC8 (unknown origin) using fluorogenic substrate incubated for 30 mins by fluorescence based assay
T1 sequence (Q9BY41 whole entry): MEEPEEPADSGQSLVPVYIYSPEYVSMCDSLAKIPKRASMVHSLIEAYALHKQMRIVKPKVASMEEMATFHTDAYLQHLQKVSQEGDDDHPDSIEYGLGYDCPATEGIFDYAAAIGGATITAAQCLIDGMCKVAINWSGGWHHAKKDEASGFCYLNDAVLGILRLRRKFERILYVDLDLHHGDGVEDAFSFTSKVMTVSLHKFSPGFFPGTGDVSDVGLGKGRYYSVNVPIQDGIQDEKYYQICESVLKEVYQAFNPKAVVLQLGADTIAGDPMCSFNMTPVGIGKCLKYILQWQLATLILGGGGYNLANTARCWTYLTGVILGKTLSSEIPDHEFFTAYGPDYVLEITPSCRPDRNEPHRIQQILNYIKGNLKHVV

PC-3 = assay: cells; assay type: functional, cell-based; conditions: Homo sapiens, PC-3, 48 h
Description: Antiproliferative activity against human PC3 cells assessed as inhibition of cell growth measured after 48 hrs by MTT assay

K562 = assay: cells; assay type: functional, cell-based; conditions: Homo sapiens, K562, 48 h
Description: Antiproliferative activity against human K562 cells assessed as inhibition of cell growth measured after 48 hrs by MTT assay

Histone deacetylase 2 = Histone deacetylase 2 (Homo sapiens, UniProt Q92769); assay: Inhibition of HDAC2 (unknown origin) using fluorogenic substrate incubated for 30 mins by fluorescence based assay
HEL = assay: cells; assay type: functional, cell-based; conditions: Homo sapiens, 48 h
Description: Antiproliferative activity against HEL cells assessed as inhibition of cell growth measured after 48 hrs by MTT assay

KG-1 [1] = assay: Antiproliferative activity against human KG-1 cells assessed as inhibition of cell growth measured after 48 hrs by MTT assay; assay type: functional, cell-based; conditions: KG-1, 48 h
HepG2 = assay: cells; assay type: functional, cell-based; conditions: Homo sapiens, HepG2, 48 h
Description: Antiproliferative activity against human HepG2 cells assessed as inhibition of cell growth measured after 48 hrs by MTT assay

[2] = target: T2, Protein deacetylase HDAC6 (Homo sapiens, UniProt Q9UBN7); assay: Inhibition of HDAC6 (unknown origin) using fluorogenic substrate incubated for 30 mins by fluorescence based assay
T2 sequence (Q9UBN7 whole entry): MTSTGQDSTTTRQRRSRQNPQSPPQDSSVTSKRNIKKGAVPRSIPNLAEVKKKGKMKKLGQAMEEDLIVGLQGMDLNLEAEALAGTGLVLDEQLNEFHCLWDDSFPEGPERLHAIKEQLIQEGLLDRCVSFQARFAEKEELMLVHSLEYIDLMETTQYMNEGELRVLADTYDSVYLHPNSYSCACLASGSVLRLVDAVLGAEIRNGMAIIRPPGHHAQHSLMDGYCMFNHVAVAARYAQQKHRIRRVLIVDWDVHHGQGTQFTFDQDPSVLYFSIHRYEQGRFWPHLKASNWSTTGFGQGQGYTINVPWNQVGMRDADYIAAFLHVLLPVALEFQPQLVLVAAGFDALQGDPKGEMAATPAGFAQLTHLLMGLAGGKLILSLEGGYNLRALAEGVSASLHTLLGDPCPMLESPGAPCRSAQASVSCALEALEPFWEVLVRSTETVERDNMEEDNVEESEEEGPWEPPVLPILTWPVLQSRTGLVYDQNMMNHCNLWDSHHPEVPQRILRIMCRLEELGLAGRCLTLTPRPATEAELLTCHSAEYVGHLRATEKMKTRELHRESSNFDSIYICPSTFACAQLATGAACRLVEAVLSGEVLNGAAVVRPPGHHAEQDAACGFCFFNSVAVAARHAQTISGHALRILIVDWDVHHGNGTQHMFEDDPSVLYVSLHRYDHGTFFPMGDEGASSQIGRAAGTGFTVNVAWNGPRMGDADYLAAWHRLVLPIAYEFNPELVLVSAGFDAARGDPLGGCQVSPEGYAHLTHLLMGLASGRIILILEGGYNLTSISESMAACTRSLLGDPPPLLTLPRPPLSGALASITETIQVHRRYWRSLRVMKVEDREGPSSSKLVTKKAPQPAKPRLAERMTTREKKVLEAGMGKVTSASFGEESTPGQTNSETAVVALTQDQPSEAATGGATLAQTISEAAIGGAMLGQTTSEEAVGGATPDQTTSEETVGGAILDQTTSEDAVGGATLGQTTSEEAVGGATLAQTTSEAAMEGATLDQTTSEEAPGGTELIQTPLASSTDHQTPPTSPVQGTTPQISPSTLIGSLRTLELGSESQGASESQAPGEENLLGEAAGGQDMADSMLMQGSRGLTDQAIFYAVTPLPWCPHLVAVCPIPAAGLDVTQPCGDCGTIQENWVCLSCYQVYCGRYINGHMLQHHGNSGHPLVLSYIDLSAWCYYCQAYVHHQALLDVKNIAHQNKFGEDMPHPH

DNA = assay: Binding affinity to nuclear DNA in human HepG2 cells assessed as colocalization of acridine orange-test compound signal at 5 uM by confocal fluorescence microscopic analysis; assay type: functional, cell-based
Calf thymus DNA [3] = assay: Binding affinity to calf thymus DNA assessed as increase in absorption at 20 uM by UV-vis absorption spectroscopy; assay type: nucleic-acid assay; conditions: Bos taurus
Calf thymus DNA [4] = assay: Binding affinity to calf thymus DNA assessed as change in entropy at 500 microM by isothermal titration calorimetric analysis; assay type: nucleic-acid assay; conditions: Bos taurus
B16-F10 [5] = assay: Antitumor activity against mouse B16-F10 cells xenografted in C57BL/6J mouse assessed as reduction in tumor heterogeneity at 60 mg/kg, IG administered for 12 days by H and E staining based histopathological analysis; assay type: functional, organism-based; conditions: time 12.0 day
B16-F10 [6] = assay: Antitumor activity against mouse B16-F10 cells implanted in C57BL/6J mouse assessed as reduction on tumor weight at 60 mg/kg, IG administered for 12 days; assay type: functional, organism-based; conditions: time 12.0 day
B16-F10 [7] = assay: Antitumor activity against mouse B16-F10 cells implanted in C57BL/6J mouse assessed as reduction on tumor volume at 60 mg/kg, IG administered for 12 days; assay type: functional, organism-based; conditions: time 12.0 day
[8] = Toxicity in C57BL/6J mouse implanted with mouse B16-F10 cells assessed as effect on body weight at 60 mg/kg, IG administered for 12 days; assay type: organism-based; conditions: in vivo, po, 288 h, time 12 day
[9] = Toxicity in C57BL/6J mouse implanted with mouse B16-F10 cells assessed as glomerular structure damage in kidney at 60 mg/kg, IG administered for 12 days H and E staining based histopathological analysis; assay type: organism-based; conditions: in vivo, po, 288 h, time 12 day
[10] = Toxicity in C57BL/6J mouse implanted with mouse B16-F10 cells assessed as heart damage at 60 mg/kg, IG administered for 12 days H and E staining based histopathological analysis; assay type: organism-based; conditions: in vivo, po, 288 h, time 12 day
KG-1 [11] = assay: Induction of apoptosis in human KG-1 cells assessed as total apoptotic cells at 1 uM measured after 24 hrs by Annexin V-FITC/propidium iodide staining based flow cytometry analysis relative to control; assay type: functional
B16-F10 [12] = assay: Antitumor immunity against mouse B16-F10 cells implanted in C57BL/6J mouse assessed as increase in proportion of T cells in spleen by flow cytometry analysis; assay type: functional, cell-based
[13] = Toxicity in C57BL/6J mouse implanted with mouse B16-F10 cells assessed as liver damage at 60 mg/kg, IG administered for 12 days H and E staining based histopathological analysis; assay type: organism-based; conditions: in vivo, po, 288 h, time 12 day
KG-1 [14] = assay: Downregulation of SPT16 expression in human KG-1 cells assessed as chromatin damage at 0.5 to […] measured after 24 hrs by Western blot analysis; assay type: functional, cell-based; conditions: dose 0.5-2.5 µM
B16-F10 [15] = assay: Antitumor activity against mouse B16-F10 cells implanted in C57BL/6J mouse assessed as reduction on tumor size at 60 mg/kg, IG administered for 12 days; assay type: functional, organism-based; conditions: time 12.0 day
[16] = Toxicity in C57BL/6J mouse implanted with mouse B16-F10 cells assessed as spleen damage at 60 mg/kg, IG administered for 12 days H and E staining based histopathological analysis; assay type: organism-based; conditions: in vivo, po, 288 h, time 12 day
KG-1 [17] = assay: Downregulation of SSRP-1 expression in human KG-1 cells assessed as chromatin damage at 0.5 to […] measured after 24 hrs by Western blot analysis; assay type: functional, cell-based; conditions: dose 0.5-2.5 µM
B16-F10 [18] = assay: Antitumor activity against mouse B16-F10 cells xenografted in C57BL/6J mouse assessed as change in tumor cell morphology into normal tissue at 60 mg/kg, IG administered for 12 days by H and E staining based histopathological analysis; assay type: functional, organism-based; conditions: time 12.0 day
[19] = Toxicity in C57BL/6J mouse implanted with mouse B16-F10 cells assessed as lung damage at 60 mg/kg, IG administered for 12 days H and E staining based histopathological analysis; assay type: organism-based; conditions: in vivo, po, 288 h, time 12 day

Chain of Histone deacetylase 1 (Q13547 whole entry): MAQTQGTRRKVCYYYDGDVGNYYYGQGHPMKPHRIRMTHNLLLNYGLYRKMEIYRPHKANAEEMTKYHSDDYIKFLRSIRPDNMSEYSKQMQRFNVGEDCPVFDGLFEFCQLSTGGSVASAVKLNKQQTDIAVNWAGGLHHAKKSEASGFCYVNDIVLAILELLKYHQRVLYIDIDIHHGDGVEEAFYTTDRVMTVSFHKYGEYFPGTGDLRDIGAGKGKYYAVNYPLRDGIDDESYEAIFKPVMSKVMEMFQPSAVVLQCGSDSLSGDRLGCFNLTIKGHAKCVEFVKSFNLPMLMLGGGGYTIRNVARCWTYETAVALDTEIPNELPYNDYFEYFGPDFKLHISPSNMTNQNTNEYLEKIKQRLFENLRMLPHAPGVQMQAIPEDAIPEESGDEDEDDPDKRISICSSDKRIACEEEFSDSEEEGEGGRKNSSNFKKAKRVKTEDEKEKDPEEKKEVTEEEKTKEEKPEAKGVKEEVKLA
Chain of Histone deacetylase 2 (Q92769 whole entry): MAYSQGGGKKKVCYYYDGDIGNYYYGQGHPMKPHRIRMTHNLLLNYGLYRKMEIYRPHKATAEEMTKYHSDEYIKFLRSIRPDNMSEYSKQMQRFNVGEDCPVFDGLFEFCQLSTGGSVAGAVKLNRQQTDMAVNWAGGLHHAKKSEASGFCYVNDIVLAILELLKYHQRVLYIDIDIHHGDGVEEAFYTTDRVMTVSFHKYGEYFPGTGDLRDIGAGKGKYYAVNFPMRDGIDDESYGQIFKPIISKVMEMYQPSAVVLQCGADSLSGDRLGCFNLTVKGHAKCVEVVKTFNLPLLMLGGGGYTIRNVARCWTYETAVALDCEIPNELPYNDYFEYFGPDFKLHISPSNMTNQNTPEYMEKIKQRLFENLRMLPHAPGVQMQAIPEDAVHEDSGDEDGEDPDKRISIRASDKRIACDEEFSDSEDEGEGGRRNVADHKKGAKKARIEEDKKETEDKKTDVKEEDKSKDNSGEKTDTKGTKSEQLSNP

For `O=C(CCCOc1ccc(-c2nc3ccc(-c4nc5ccccc5[nH]4)cc3[nH]2)cc1)NO`, the IC50 (Histone deacetylase) was > 1000 nM.
Work on `O=C(CCCCCOc1ccc(-c2nc3ccc(-c4nc5ccccc5[nH]4)cc3[nH]2)cc1)NO` yielded an IC50 (Histone deacetylase) of 43.62 nM.
`O=C(CCCCOc1ccc(-c2nc3ccccc3[nH]2)cc1)NO` gave an IC50 (Histone deacetylase) of 189.1 nM.
Work on `O=C(CCCCCOc1cccc(-c2nc3ccc(-c4nc5ccccc5[nH]4)cc3[nH]2)c1)NO` yielded an IC50 (Histone deacetylase) of 27.4 nM.
In the case of `O=C(CCCCCCOc1ccc(-c2nc3ccccc3[nH]2)cc1)NO`, the IC50 (Histone deacetylase) is reported as 40.3 nM.
In the case of `O=C(COc1cccc(-c2nc3ccccc3[nH]2)c1)NO`, the IC50 (Histone deacetylase) is reported as > 1000 nM.
In the case of `O=C(CCCCCCCOc1ccc(-c2nc3ccccc3[nH]2)cc1)NO`, the IC50 (Histone deacetylase) is reported as 49.3 nM.
With `O=C(CCCCCOc1ccc(-c2nc3ccccc3[nH]2)cc1)NO` the IC50 (Histone deacetylase) was 76 nM.
Compound `O=C(CCCOc1cccc(-c2nc3ccccc3[nH]2)c1)NO` has an IC50 (Histone deacetylase) of 490.4 nM.
Compound `O=C(CCCOc1cccc(-c2nc3ccc(-c4nc5ccccc5[nH]4)cc3[nH]2)c1)NO` has an IC50 (Histone deacetylase) of 50 nM.
`O=C(CCCCOc1cccc(-c2nc3ccccc3[nH]2)c1)NO` gave an IC50 (Histone deacetylase) of 194.4 nM.
With `O=C(CCCCCCCOc1cccc(-c2nc3ccc(-c4nc5ccccc5[nH]4)cc3[nH]2)c1)NO` the IC50 (Histone deacetylase 1) was 47 nM, the IC50 (Histone deacetylase 8) was > 20000 nM and the IC50 (PC-3) was 6900 nM. For the same compound, the IC50 (Histone deacetylase) was 7.3 nM, the IC50 (K562) was 2900 nM and the IC50 (Histone deacetylase 2) was 81 nM. For the same compound, the IC50 (HEL) was 2300 nM, the IC50 (KG-1 [1]) was 1600 nM and the IC50 (HepG2) was 16000 nM. The IC50 [2] was 23 nM.
Work on `O=C(COc1ccc(-c2nc3ccccc3[nH]2)cc1)NO` yielded an IC50 (Histone deacetylase) of 156.7 nM.
With `O=C(CCCCOc1ccc(-c2nc3ccc(-c4nc5ccccc5[nH]4)cc3[nH]2)cc1)NO` the IC50 (Histone deacetylase) was 218.8 nM.
Compound `O=C(CCCCCCOc1cccc(-c2nc3ccc(-c4nc5ccccc5[nH]4)cc3[nH]2)c1)NO` has an IC50 (Histone deacetylase) of 17.9 nM.
For `O=C(CCCOc1ccc(-c2nc3ccccc3[nH]2)cc1)NO`, the IC50 (Histone deacetylase) was 981.3 nM.
In the case of `O=C(CCCCCCOc1ccc(-c2nc3ccc(-c4nc5ccccc5[nH]4)cc3[nH]2)cc1)NO`, the IC50 (Histone deacetylase 1) is reported as 31 nM, the IC50 (Histone deacetylase 8) is reported as > 20000 nM and the IC50 (PC-3) is reported as 4400 nM. The IC50 (Histone deacetylase) was 7.6 nM, the IC50 (K562) was 510 nM and the Activity (DNA) was “Active”. It also gave an IC50 (Histone deacetylase 2) of 32 nM, an IC50 (HEL) of 1900 nM and an IC50 (KG-1 [1]) of 1400 nM. The IC50 (HepG2) was 11000 nM, the Activity (Calf thymus DNA [3]) was “Active” and the -TdeltaS (Calf thymus DNA [4]) was 45.3 kcal/mol. It also gave an IC50 [2] of 29 nM.
For `O=C(COc1ccc(-c2nc3ccc(-c4nc5ccccc5[nH]4)cc3[nH]2)cc1)NO`, the IC50 (Histone deacetylase) was > 1000 nM.
In the case of `CN1CCN(c2ccc3nc(-c4ccc5nc(-c6ccc(O)cc6)[nH]c5c4)[nH]c3c2)CC1`, the IC50 (KG-1 [1]) is reported as 42000 nM.
`O=C(CCCCOc1cccc(-c2nc3ccc(-c4nc5ccccc5[nH]4)cc3[nH]2)c1)NO` gave an IC50 (Histone deacetylase) of 304.3 nM.
Work on `O=C(CCCCCOc1cccc(-c2nc3ccccc3[nH]2)c1)NO` yielded an IC50 (Histone deacetylase) of 118.6 nM.
For `O=C(CCCCCCCOc1ccc(-c2nc3ccc(-c4nc5ccccc5[nH]4)cc3[nH]2)cc1)NO`, the IC50 (Histone deacetylase) was 20.1 nM.
In the case of `O=C(CCCCCCC(=O)Nc1ccccc1)NO` [VORINOSTAT], the Activity (B16-F10 [5]) is reported as “Active”, the Activity (B16-F10 [6]) is reported as “Active” and the Activity (B16-F10 [7]) is reported as “Active”. The Activity [8] was “Non-Toxic”, the Activity [9] was “Toxic” and the Activity [10] was “Non-Toxic”. The Activity (KG-1 [11]) was 18.2%, the Activity (B16-F10 [12]) was “Active” and the Activity [13] was “Non-Toxic”. The Activity (KG-1 [14]) was “inactive”, the Activity (B16-F10 [15]) was “Active” and the IC50 (KG-1 [1]) was 70 nM. For the same compound, the Activity [16] was “Non-Toxic”, the Activity (KG-1 [17]) was “inactive” and the Activity (B16-F10 [18]) was “Active”. The Activity [19] was “Non-Toxic”.
For `O=C(COc1cccc(-c2nc3ccc(-c4nc5ccccc5[nH]4)cc3[nH]2)c1)NO`, the IC50 (Histone deacetylase) was > 1000 nM.
